{"source": "ChEMBL document CHEMBL1151676", "about": "“Structure and absolute stereochemistry of fusaproliferin, a toxic metabolite from Fusarium proliferatum” (J Nat Prod, 1996)", "test": "Toxicity in Artemia salina", "format": "organism-based", "settings": "in vivo, read-out: LD50 (the source's name)"}
{"smiles": "CC(=O)OC[C@@H](C)C1=C(O)C(=O)[C@@]2(C)C/C=C(\\C)CC/C=C(\\C)CC[C@H](O)/C(C)=C/C[C@H]12", "note": "[FUSAPROLIFERIN]", "values": [{"measurement": "LC50", "result": 0.4, "unit": "µg/mL"}]}
